The source made the active and inactive calls. No cut-off for these calls is given here.

This note sets out measurements from ChEMBL document CHEMBL3763055, “Evaluation of synthetic coumarins for antiausterity cytotoxicity against pancreatic cancers” (Bioorg Med Chem Lett, 2016).

The nature of data set [1]: Antiausterity activity against human PANC1 cells under nutrient deprived condition assessed as reduction in cell viability incubated for 24 hrs by WST-8 assay. The data set is classed as functional, PANC-1. (Tetrazolium assays rely on reduction of a dye to a coloured formazan, in cell work by metabolically active cells.)
Data set [2] can be described thus: Cytotoxicity against human PANC1 cells in DMEM assessed as reduction in cell viability at 100 uM incubated for 24 hrs by WST-8 assay. The data set is classed as cell-based. Particulars: panc-1, 24 h.
A short description of data set [3]: Antiausterity activity against human Capan1 cells under nutrient deprived condition assessed as reduction in cell viability incubated for 24 hrs by WST-8 assay. The data set is classed as functional, CAPAN-1.
The nature of data set [4]: Antiausterity activity against human MIAPaCa2 cells under nutrient deprived condition assessed as reduction in cell viability incubated for 24 hrs by WST-8 assay. Type of data set: functional, MIA PaCa-2.
For data set [5], the system named is PANC-1. The data set is described as follows: Induction of apoptosis in human PANC1 cells under nutrient deprived condition at 50 uM after 24 hrs by ethidium bromide/acridine orange staining based fluorescence microscopy. Type of data set: functional, cell-based.

Turning to `CC(C)(CC(=O)/C=C/c1ccc(C(F)(F)F)cc1)C1Cc2c(ccc3ccc(=O)oc23)O1` (configuration not stated), the PC50 in data set [1] amounted to 0.023 µM.

In the case of `CCCCCCCCOc1ccc2c(C)cc(=O)oc2c1C`, the Activity entry in data set [2] is recorded as “Non-toxic”. Moreover, the PC50 in data set [1] was greater than 100 µM.

Turning to `CCCCCCCCCCCCOc1ccc2c(CC)cc(=O)oc2c1`, the Activity entry in data set [2] was “Non-toxic”. Moreover, the PC50 in data set [1] came out at 51 µM.

As for `CCCCCCCCCCCCCCCCOc1ccc2c(C(F)(F)F)cc(=O)oc2c1C`, the Activity result in data set [2] is “Non-toxic”. The PC50 in data set [1] was greater than 100 µM.

Take `O=c1ccc2ccc(OCc3cn(Cc4cccc(C(F)(F)F)c4)nn3)cc2o1`: the PC50 in data set [3] amounted to 18 µM; in data set [4] it was 8.5 µM; in data set [1] it was 29 µM. Moreover, the Activity entry in data set [2] is recorded as “Non-toxic”. In data set [5], the outcome was Active.

In the case of `O=c1ccc2ccc(OCc3cn(Cc4ccc(C(F)(F)F)cc4)nn3)cc2o1`, the PC50 in data set [3] is greater than 100 µM; in data set [4], 9.6 µM; in data set [1], greater than 100 µM. Also, the Activity entry in data set [2] is reported as “Non-toxic”.

For `CC(C)c1ccc(Cn2cc(COc3ccc4ccc(=O)oc4c3)nn2)cc1`, in data set [2], the Activity entry is on record as “Non-toxic”. For the same molecule, the PC50 in data set [1] is greater than 100 µM.

Regarding `CCCCCCCCCCCCOc1ccc2c(C)cc(=O)oc2c1`, the Activity entry in data set [2] is given as “Non-toxic”. Also, the PC50 in data set [1] was greater than 100 µM.

Consider `CCCCCCCCn1cc(COc2ccc3ccc(=O)oc3c2)nn1`, for which the Activity result in data set [2] was “Non-toxic”. In addition, the PC50 in data set [1] was greater than 100 µM.

As for `O=c1ccc2ccc(OCc3cn(Cc4ccccc4)nn3)cc2o1`, in data set [2], the Activity entry is listed as “Non-toxic”. In addition, the PC50 in data set [1] is greater than 100 µM.

On to `CCCCCCCCCCCCOc1ccc2c(C(F)(F)F)cc(=O)oc2c1C`, for which, in data set [2], the Activity result was “Non-toxic”. Further, the PC50 in data set [1] was greater than 100 µM.

For the molecule `CCCCCCCCCCCCCCCCOc1ccc2c(C(F)(F)F)cc(=O)oc2c1`, the Activity result in data set [2] was “Non-toxic”. The PC50 in data set [1] is greater than 100 µM.

As to `CCCCCCCCOc1ccc2c(C(F)(F)F)cc(=O)oc2c1`, the Activity result in data set [2] is “Non-toxic”. Besides, in data set [1], the PC50 came to 63 µM.

In the case of `CCCCCCCCCCCCCCOc1ccc2c(C)cc(=O)oc2c1`, in data set [2], the Activity result was “Non-toxic”. In addition, the PC50 in data set [1] is greater than 100 µM.

For the molecule `CC(C)(CC(=O)/C=C/c1cccc(C(F)(F)F)c1)C1Cc2c(ccc3ccc(=O)oc23)O1` (configuration not stated), the PC50 in data set [1] was 0.079 µM.

Consider `Cc1cc(=O)oc2cc(OCC3CC3)ccc12`, for which, in data set [2], the Activity result is reported as “Non-toxic”. Besides, the PC50 in data set [1] is greater than 100 µM.

As for `CCCCCCCCOc1ccc2c(CC)cc(=O)oc2c1`, the Activity entry in data set [2] is recorded as “Non-toxic”. Besides, in data set [1], the PC50 worked out at 29 µM.

`COc1ccc(Cn2cc(COc3ccc4ccc(=O)oc4c3)nn2)cc1`: the Activity result in data set [2] is reported as “Non-toxic”. Further, in data set [1], the PC50 was greater than 100 µM.

Turning to `CC(C)=CCC/C(C)=C/COc1cc2ccc(=O)oc2cc1O`, the PC50 in data set [1] came to 7.2 µM.

On to `CCCCCCCCOc1ccc2c(C)cc(=O)oc2c1`, for which, in data set [2], the Activity entry is given as “Non-toxic”. The PC50 in data set [1] was found to be 48 µM.
